# Source: patent publication US9855220B2, “Methods of treating pancreatic cancer” (priority 2013, dated 2018)
# Legend:
# [1] = tested on: patients with locally advanced pancreatic cancer; conditions: cited from earlier work
# [2] = tested on: patients with metastatic adenocarcinoma of the pancreas; assay: MPACT phase 3 study: time to treatment failure; format: in vivo, human
# Method: (§1) The primary efficacy endpoint was overall survival (OS). […] 3.0 (NCI CTCAE).
# (§2) Study endpoints were determined by analyzing the following criteria: (1) changes in serum CA 19-9 levels; (2) changes in plasma SPARC (secreted protein, acidic and rich in cysteine) levels; (3) time and duration of response (using RECIST v. 1.0); (4) disease control rate based on objective response or stable disease ≧16 weeks; (5) time to treatment failure; (6) progression-free survival and overall response rate by investigator; and (7) tumor response by PET scans using EORTC criteria and blinded radiology assessments. When assessing study endpoints, researchers examined correlations between objective tumor response as determined by CT and PET scans, molecular marker expression and efficacy, and objective tumor response as determined by PET, progression-free survival, CA 19-9 levels, SPARC levels and overall survival.
# [3] = tested on: patients with metastatic adenocarcinoma of the pancreas; assay: MPACT phase 3 study: objective tumor response and disease control rate (RECIST v. 1.0); format: in vivo, human
# Method: as §1
# (§3) 1 interim survival analysis was planned for futility.
# as §2
# [4] = tested on: pancreatic cancer; conditions: in vivo; cited from earlier work
# [5] = tested on: patients with metastatic adenocarcinoma of the pancreas; format: in vivo
# Text: (§4) Patients who had not experienced disease progression were followed with regularly scheduled spiral CT/MRI scans every 8 weeks in both arms. Patients were followed for survival until death or study closure.
# [6] = tested on: patients with metastatic adenocarcinoma of the pancreas; assay: MPACT phase 3 study: progression-free survival (independent radiological review, investigator review); format: in vivo, human; conditions: for Progression-free rate (%): independent radiological review
# Method: as §1, §3, §2
# [7] = tested on: patients with metastatic adenocarcinoma of the pancreas
# Text: as §4
# (§5) The primary efficacy endpoint was overall survival (OS). Secondary efficacy endpoints were progression-free survival (PFS) (measured by blinded, independent radiology assessments done at 8 weeks), objective tumor response according to Response Evaluation Criteria in Solid Tumors (RECIST v. 1.0) based on Spiral computed tomography (CT) scans/magnetic resonance imaging (MRI). Other endpoints included were progression-free survival and objective response rate (ORR) by investigator review, disease control rate (DCR), time to failure (TTF), and safety/tolerability by National Cancer Institute Common Terminology Criteria for Adverse Events v. 3.0 (NCI CTCAE).
# (§6) The sample size was increased prior to the interim analysis to increase the power from 80% to 90% (842 patients, 608 events) to detect a hazard ratio (HR) of 0.769 (2-sided α:0.049). 1 interim survival analysis was planned for futility. The intent-to-treat (ITT) population was evaluated for efficacy, the treated population for safety. Treatment differences in overall survival and progression-free survival were tested using stratified log-rank; objective response rates were tested using the chi-squared test.
# [8] = tested on: patients with metastatic adenocarcinoma of the pancreas; assay: MPACT phase 3 study: overall survival; format: in vivo, human; conditions: for median overall survival: intent-to-treat population; for Median OS 95% CI (months): intent-to-treat
# Text: as §4
# The 1:1 randomization was stratified by: (1) Karnofsky performance status (PS) (70-80 versus 90-100); (2) Region (Australia, North America, Eastern/Western Europe); (3) Presence of liver metastasis (Yes vs. No).
# as §5, §6
# [9] = independent radiological review
# [10] = best response by blinded assessment
# [11] = best response by blinded assessment / independent review
# [12] = number of patients (% of arm), N = 431 vs N = 430
# [13] = treated population, N = 421 vs N = 402
structure (smiles),measurement,setting,value
"O=c1[nH]cc(F)c(=O)[nH]1 [5-FU, 5-fluororuracil]",median overall survival,[1],4.2 months
same,median time to disease progression,[1],0.9 months
"Nc1ccn([C@@H]2O[C@H](CO)[C@@H](O)C2(F)F)c(=O)n1 [Gemcitabine, gemcitabine]",Median TTF,[2]; [9],3.6 months
same,"Patients with Treatment Failure, %",[2]; [9],94%
same,"Patients Censored, %",[2]; time to treatment failure analysis,6%
same,median overall survival,[1],5.7 months
same,median time to disease progression,[1],2.1 months
same,"Not evaluable, %",[3]; [10],39%
same,"Progressive Disease, %",[3]; [10],26%
same,"Stable Disease, %",[3]; [10],28%
same,"Complete Response, %",[3]; [11],0%
same,"Partial Response, %",[3]; [11],7%
same,"ORR, blinded (independent radiological) assessment","[3]; confirmed complete or partial response, ITT",7%
same,"ORR, investigator assessment",[3]; in vivo,8%
same,"Stable Disease ≧16 weeks, %",[3]; independent review,26%
same,DCR (disease control rate) by independent review,[3]; objective response or stable disease ≧16 weeks,33%
same,median overall survival,[4],6.0 months
same,median progression free survival,[4],3.5 months
same,"Patients with ≧1 Dose Reduction, %: gemcitabine",[5]; gemcitabine component,33%
same,Reason for Therapy Discontinuation: Adverse Events,[5]; [12],73 (17%)
same,Reason for Therapy Discontinuation: Adverse Events Related to Study Drug,[5]; [12],29 (7%)
same,Reason for Therapy Discontinuation: Progressive Disease,[5]; [12],245 (57%)
same,"N/Events, PFS by independent radiological review",[6]; ITT,430/265
same,Median Progression-Free Survival by independent radiological review,[6]; ITT population,3.7 months
same,Progression-free rate (%),[6]; at 6 month,25%
same,Progression-free rate (%),[6]; at 9 month,14%
same,Progression-free rate (%),[6]; at 12 month,9%
same,Progression-free rate (%),[6]; at 15 month,9%
same,Median Progression-Free Survival by investigator review,[6]; in vivo,3.5 months
same,"N/Events, PFS by investigator review",[6]; in vivo,430/348
same,"Febrile Neutropenia (any grade), %","[7]; human, in vivo",1%
same,"Grade ≧3 Anemia, %","[7]; human, in vivo",12%
same,"Grade ≧3 Diarrhea, %","[7]; human, in vivo",2%
same,"Grade ≧3 Fatigue, %","[7]; human, in vivo",7%
same,"Grade ≧3 Leukopenia, %","[7]; human, in vivo",16%
same,"Grade ≧3 Neuropathy, Time to Improvement by 1 grade, median","[7]; human, in vivo",29 days
same,"Grade ≧3 Neuropathy, Time to Onset, median","[7]; human, in vivo",113 days
same,"Grade ≧3 Neutropenia, %","[7]; human, in vivo",27%
same,"Grade ≧3 Peripheral neuropathy, %","[7]; human, in vivo",<1%
same,"Grade ≧3 Thrombocytopenia, %","[7]; human, in vivo",9%
same,"Myelosuppression: ANC, NCI CTCAE Grade 3","[7]; human, in vivo",82 (21) n (%)
same,"Myelosuppression: ANC, NCI CTCAE Grade 4","[7]; human, in vivo",21 (5) n (%)
same,"Myelosuppression: Hemoglobin, NCI CTCAE Grade 3","[7]; human, in vivo",42 (11) n (%)
same,"Myelosuppression: Hemoglobin, NCI CTCAE Grade 4","[7]; human, in vivo",6 (2) n (%)
same,"Myelosuppression: Platelet Count, NCI CTCAE Grade 3","[7]; human, in vivo",28 (7) n (%)
same,"Myelosuppression: Platelet Count, NCI CTCAE Grade 4","[7]; human, in vivo",8 (2) n (%)
same,Subjects with at least one AE with Action of Study Drug Permanently Discontinued,"[7]; human, in vivo",95 (24%) n (%)
same,Treatment Emergent AEs Resulting in Treatment Discontinuation: Blood & Lymphatic,"[7]; human, in vivo",16 (4%) n (%)
same,Treatment Emergent AEs Resulting in Treatment Discontinuation: Gastrointestinal disorders,"[7]; human, in vivo",22 (5%) n (%)
same,Treatment Emergent AEs Resulting in Treatment Discontinuation: General Disorders/Administration Site Condition,"[7]; human, in vivo",18 (4%) n (%)
same,Treatment Emergent AEs Resulting in Treatment Discontinuation: Infections and infestations,"[7]; human, in vivo",11 (3%) n (%)
same,Treatment Emergent AEs Resulting in Treatment Discontinuation: Nervous System,"[7]; human, in vivo",7 (2%) n (%)
same,"Treatment Emergent AEs Resulting in Treatment Discontinuation: Respiratory, Thoracic and mediastinal disorders","[7]; human, in vivo",15 (4%) n (%)
same,Treatment-Emergent Grade 3 or Higher AE: Abdominal pain,"[7]; human, in vivo",32 (8%)
same,Treatment-Emergent Grade 3 or Higher AE: Anemia,"[7]; human, in vivo",32 (8%)
same,Treatment-Emergent Grade 3 or Higher AE: Asthenia,"[7]; human, in vivo",17 (4%)
same,Treatment-Emergent Grade 3 or Higher AE: Dehydration,"[7]; human, in vivo",10 (2%)
same,Treatment-Emergent Grade 3 or Higher AE: Diarrhea,"[7]; human, in vivo",6 (1%)
same,Treatment-Emergent Grade 3 or Higher AE: Fatigue,"[7]; human, in vivo",37 (9%)
same,Treatment-Emergent Grade 3 or Higher AE: Leukopenia,"[7]; human, in vivo",15 (4%)
same,Treatment-Emergent Grade 3 or Higher AE: Nausea,"[7]; human, in vivo",14 (3%)
same,Treatment-Emergent Grade 3 or Higher AE: Neutropenia,"[7]; human, in vivo",85 (21%)
same,Treatment-Emergent Grade 3 or Higher AE: Peripheral neuropathy,"[7]; human, in vivo",3 (1%)
same,Treatment-Emergent Grade 3 or Higher AE: Pulmonary Embolism,"[7]; human, in vivo",26 (6%)
same,Treatment-Emergent Grade 3 or Higher AE: Thrombocytopenia,"[7]; human, in vivo",33 (8%)
same,Treatment-Emergent Grade 3 or Higher AE: Vomiting,"[7]; human, in vivo",15 (4%)
same,"Pt with at least 1 AE leading to death, %",[7]; treated population,4%
same,Subject with at Least 1 Treatment Related AE with Outcome of Death,[7]; [13],18 (4%) n (%)
same,Treatment Emergent AEs with Outcome of Death: Cardiac Disorders,[7]; [13],3 (1%) n (%)
same,Treatment Emergent AEs with Outcome of Death: Gastrointestinal disorders,[7]; [13],3 (1%) n (%)
same,Treatment Emergent AEs with Outcome of Death: General disorders and administration site conditions,[7]; [13],3 (1%) n (%)
same,Treatment Emergent AEs with Outcome of Death: Hepatobiliary disorders,[7]; [13],1 (<1%) n (%)
same,Treatment Emergent AEs with Outcome of Death: Infections and infestations,[7]; [13],3 (1%) n (%)
same,Treatment Emergent AEs with Outcome of Death: Neoplasm Progression,[7]; [13],2 (<1%) n (%)
same,Treatment Emergent AEs with Outcome of Death: Nervous system disorders,[7]; [13],2 (<1%) n (%)
same,Treatment Emergent AEs with Outcome of Death: Renal and urinary disorders,[7]; [13],1 (<1%) n (%)
same,"Treatment Emergent AEs with Outcome of Death: Respiratory, thoracic and mediastinal disorders",[7]; [13],3 (1%) n (%)
same,"Patients Died, %",[8]; ITT,(83%)
same,"Median OS, sensitivity analysis",[8]; censor at time of 2nd line therapy,6.8 Months
same,median overall survival,[8],6.7 (6.01-7.23) months
same,median overall survival,[8]; listed as gemcitabine,6.7 months
same,Median OS 95% CI (months),[8]; subgroup Geographic Region: Eastern Europe,"5.9 (4.67, 7.46) months"
same,Median OS 95% CI (months),[8]; subgroup Geographic Region: North America,"6.8 (6.01, 7.52) months"
same,Median OS 95% CI (months),[8]; subgroup Geographic Region: Western Europe,"6.9 (5.09, —)^ months"
same,Median OS 95% CI (months),[8]; subgroup Pancreatic Cancer Primary Location: Head,"6.5 (5.55, 7.29) months"
same,Median OS 95% CI (months),[8]; subgroup Pancreatic Cancer Primary Location: Other,"6.9 (5.98, 7.52) months"
same,% survival,[8]; time point 6 month,55%
same,% survival,[8]; time point 9 month,36%
same,% survival,[8]; time point 12 month (1-year survival rate),22%
same,% survival,[8]; time point 18 month,9%
same,% survival,[8]; time point 24 month (2-year survival rate),4%
